Measurements taken from patent US20230129438A1, “IMMUNOMODULATING IMINE-OXAZOLINE AZALIDES” (Zoetis Services LLC, priority 2020, published 2023).
pIC50: −log10 of the molar value.

Tests used:
E. coli = experiment: In-vitro MIC model, E. coli
IL-1β = experiment: Bovine whole blood assay, IL-1β; assay type: cell-based; details: drug concentration giving overstimulation of IL-1β over LPS (cellular toxicity signal)
Method: (§1) (protected from light) for 30 minutes.

M. haemolytica = experiment: In-vitro MIC model, M. haemolytica; assay type: cell-based
TNF-α = experiment: Bovine whole blood assay, LPS-induced TNF-α; assay type: cell-based; details: LPS 1 μg/mL
Method: as §1

S. aureus = experiment: In-vitro MIC model, S. aureus; details: S. aureus ATCC 29213
P. multocida 46572 = experiment: In vivo mouse lung infection challenge model (murine efficacy model); details: for % Survival: 20 mg/kg subcutaneous, CD-1 mice, intranasal challenge, to Day 10, approximate (~%), harmonized relative to vehicle and M9
P. multocida = experiment: In-vitro MIC model, P. multocida; assay type: cell-based
IL-6 = experiment: Bovine whole blood assay, LPS-induced IL-6; assay type: cell-based; details: LPS 1 μg/mL

Row | pIC50 (IL-6) | Structure (SMILES) | MIC (E. coli; E. coli ATCC 25922) | MIC (E. coli; E. coli W3110) | IL-Iβ OS of LPS (IL-1β) | MIC (M. haemolytica; M. haemolytica 12726) | MIC (M. haemolytica; M. haemolytica 46571, bovine efficacy challenge strain) | MIC (M. haemolytica; M. haemolytica ATCC 33396) | pIC50 (TNF-α) | MIC (S. aureus) | % Survival (P. multocida 46572) | clinical efficacy, in words (P. multocida 46572; P. multocida infection in mice) | MIC (P. multocida; P. multocida 46572, murine efficacy challenge strain) | MIC (P. multocida; P. multocida ATCC 43137)
1 |  | CC[C@H]1OC(=O)[C@H](C)[C@@H](O[C@H]2C[C@@](C)(OC)[C@](O)(CNCCOC)[C@H](C)O2)[C@H](C)[C@@H](O[C@@H]2O[C@H](C)C[C@H]3[C@H]2OC(=Nc2ccc(OC)cc2)N3C)[C@](C)(O)C[C@@H](C)CN[C@H](C)[C@@H](O)[C@]1(C)O (mixture of isomers) [Example A-13, (E/Z)-(2R,3S,4R,5R,8R,10R,11R,12S,13S,14R)-2-ethyl-3,4,10-trihydroxy-13-(((2R,4R,5S,6S)-5-hydroxy-4-methoxy-5-(((2-methoxyethyl)amino)methyl)-4,6-dimethyltetrahydro-2H-pyran-2-yl)oxy)-11-(((3aR,4S,6R,7aS)-2-((4-methoxyphenyl)imino)-1,6-dimethylhexahydro-2H-pyrano[4,3-d]oxazol-4-yl)oxy)-3,5,8,10,12,14-hexamethyl-1-oxa-6-azacyclopentadecan-15-one] | >64 µg/mL | >64 µg/mL | 32 µM | >64 µg/mL | >64 µg/mL | >64 µg/mL | 5.30 | >64 µg/mL | 37% | clinically efficacious | >64 µg/mL | >64 µg/mL
2 | 5.00 | CCCNC[C@]1(O)[C@H](C)O[C@@H](O[C@H]2[C@H](C)[C@@H](O[C@@H]3O[C@H](C)C[C@H]4[C@H]3OC(=Nc3ccccc3)N4C)[C@](C)(O)C[C@@H](C)CN(C)[C@H](C)[C@@H](O)[C@](C)(O)[C@@H](CC)OC(=O)[C@@H]2C)C[C@@]1(C)OC (mixture of isomers) [Example A-31, (E/Z)-(2R,3S,4R,5R,8R,10R,11R,12S,13S,14R)-11-(((3aR,4S,6R,7aS)-1,6-dimethyl-2-(phenylimino)hexahydro-2H-pyrano[4,3-d]oxazol-4-yl)oxy)-2-ethyl-3,4,10-trihydroxy-13-(((2R,4R,5S,6S)-5-hydroxy-4-methoxy-4,6-dimethyl-5-((propylamino)methyl)tetrahydro-2H-pyran-2-yl)oxy)-3,5,6,8,10,12,14-heptamethyl-1-oxa-6-azacyclopentadecan-15-one] |  |  | >250 µM |  |  |  | 5.15 |  |  |  |  | 
3 | 5.70 | CCCNC[C@]1(O)[C@H](C)O[C@@H](O[C@H]2[C@H](C)[C@@H](O[C@@H]3O[C@H](C)C[C@H]4[C@H]3OC(=Nc3ccccc3)N4CC(C)C)[C@](C)(O)C[C@@H](C)CN[C@H](C)[C@@H](O)[C@](C)(O)[C@@H](CC)OC(=O)[C@@H]2C)C[C@@]1(C)OC (mixture of isomers) [Example A-32, (E/Z)-(2R,3S,4R,5R,8R,10R,11R,12S,13S,14R)-2-ethyl-3,4,10-trihydroxy-13-(((2R,4R,5S,6S)-5-hydroxy-4-methoxy-4,6-dimethyl-5-((propylamino)methyl)tetrahydro-2H-pyran-2-yl)oxy)-11-(((3aR,4S,6R,7aS)-1-isobutyl-6-methyl-2-(phenylimino)hexahydro-2H-pyrano[4,3-d]oxazol-4-yl)oxy)-3,5,8,10,12,14-hexamethyl-1-oxa-6-azacyclopentadecan-15-one] |  |  | 2 µM |  |  |  | 5.30 |  |  |  |  | 

Row | Structure (SMILES) | pIC50 (IL-6) | MIC (E. coli; E. coli ATCC 25922) | MIC (E. coli; E. coli W3110) | IL-Iβ OS of LPS (IL-1β) | MIC (M. haemolytica; M. haemolytica 12726) | MIC (M. haemolytica; M. haemolytica 46571, bovine efficacy challenge strain) | MIC (M. haemolytica; M. haemolytica ATCC 33396) | pIC50 (TNF-α) | MIC (S. aureus) | % Survival (P. multocida 46572) | clinical efficacy, in words (P. multocida 46572; P. multocida infection in mice) | MIC (P. multocida; P. multocida 46572, murine efficacy challenge strain) | MIC (P. multocida; P. multocida ATCC 43137)
4 | CC[C@H]1OC(=O)[C@H](C)[C@@H](O[C@H]2C[C@@](C)(OC)[C@](O)(CNCC3CC3)[C@H](C)O2)[C@H](C)[C@@H](O[C@@H]2O[C@H](C)C[C@H]3[C@H]2OC(=Nc2ccc(OC)nc2)N3C)[C@](C)(O)C[C@@H](C)CN[C@H](C)[C@@H](O)[C@]1(C)O (mixture of isomers) [Example A-25, (E/Z)-(2R,3S,4R,5R,8R,10R,11R,12S,13S,14R)-13-(((2R,4R,5S,6S)-5-(((cyclopropylmethyl)amino)methyl)-5-hydroxy-4-methoxy-4,6-dimethyltetrahydro-2H-pyran-2-yl)oxy)-2-ethyl-3,4,10-trihydroxy-11-(((3aR,4S,6R,7aS)-2-((6-methoxypyridin-3-yl)imino)-1,6-dimethylhexahydro-2H-pyrano[4,3-d]oxazol-4-yl)oxy)-3,5,8,10,12,14-hexamethyl-1-oxa-6-azacyclopentadecan-15-one] | 5.40 |  |  | 16 µM |  |  |  | 5.60 |  | 26% |  |  | 
